# Test results: patent US20210198277A1, “AMINE-SUBSTITUTED ARYL OR HETEROARYL COMPOUNDS” (Epizyme, Inc., priority 2016, published 2021)
# Biological target: T1, EHMT1 (Homo sapiens, UniProt Q9H9B1)
# T1 sequence (Q9H9B1 1-1298): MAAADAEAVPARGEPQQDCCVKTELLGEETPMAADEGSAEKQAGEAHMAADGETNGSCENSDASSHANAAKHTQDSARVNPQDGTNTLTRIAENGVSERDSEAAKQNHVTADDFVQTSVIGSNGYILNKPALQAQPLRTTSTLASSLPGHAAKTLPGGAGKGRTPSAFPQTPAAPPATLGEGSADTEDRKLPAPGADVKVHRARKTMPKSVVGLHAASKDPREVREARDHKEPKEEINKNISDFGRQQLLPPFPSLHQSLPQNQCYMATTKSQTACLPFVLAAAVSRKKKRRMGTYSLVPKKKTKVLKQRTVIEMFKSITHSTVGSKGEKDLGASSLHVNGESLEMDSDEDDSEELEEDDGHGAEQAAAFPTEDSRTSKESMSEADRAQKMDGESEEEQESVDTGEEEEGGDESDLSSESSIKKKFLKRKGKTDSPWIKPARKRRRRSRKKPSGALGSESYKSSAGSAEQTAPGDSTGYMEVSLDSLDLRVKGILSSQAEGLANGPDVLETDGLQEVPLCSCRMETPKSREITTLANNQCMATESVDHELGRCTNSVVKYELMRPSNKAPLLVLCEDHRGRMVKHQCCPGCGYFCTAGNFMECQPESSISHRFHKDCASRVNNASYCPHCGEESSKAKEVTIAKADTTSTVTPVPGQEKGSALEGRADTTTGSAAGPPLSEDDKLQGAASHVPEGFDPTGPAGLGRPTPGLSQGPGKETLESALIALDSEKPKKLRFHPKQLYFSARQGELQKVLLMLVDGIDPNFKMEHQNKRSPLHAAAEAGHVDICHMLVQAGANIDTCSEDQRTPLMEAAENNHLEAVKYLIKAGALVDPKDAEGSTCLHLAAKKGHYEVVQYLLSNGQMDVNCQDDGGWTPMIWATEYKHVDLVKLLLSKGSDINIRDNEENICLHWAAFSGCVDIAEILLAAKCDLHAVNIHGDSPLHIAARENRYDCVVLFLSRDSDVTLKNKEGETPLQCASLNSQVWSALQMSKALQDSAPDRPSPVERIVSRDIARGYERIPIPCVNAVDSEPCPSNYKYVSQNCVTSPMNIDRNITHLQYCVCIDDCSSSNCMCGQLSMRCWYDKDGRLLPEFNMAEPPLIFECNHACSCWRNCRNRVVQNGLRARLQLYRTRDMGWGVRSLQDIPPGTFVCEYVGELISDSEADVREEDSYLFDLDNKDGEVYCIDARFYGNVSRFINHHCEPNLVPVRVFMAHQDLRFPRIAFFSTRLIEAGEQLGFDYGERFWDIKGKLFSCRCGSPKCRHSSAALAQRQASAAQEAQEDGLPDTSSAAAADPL
# Assay: EHMT1 enzyme assay on peptide substrate (EHMT1 PEP)
# Type: biochemical
# Conditions: Table III; read-out: EHMT1 PEP (IC50 μM)
row,SMILES,IC50
1,CNc1ccnc(Nc2cccc(N3CCC(N(C)C)C3=O)c2)n1 (centres unmarked) [Compound 275],> 10 µM
2,"CCOc1ccc(Nc2nc(C)cc(NC)n2)cc1OCCCN1CCCC1 [Compound 432, N^2-(4-ethoxy-3-(3-(pyrrolidin-1-yl)propoxy)phenyl)-N^4,6-dimethylpyrimidine-2,4-diamine]",> 10 µM
3,"COc1ccc(Nc2cc(C)nc(O)n2)cc1OCCCN1CCCC1 [Compound 448, 4-((4-methoxy-3-(3-(pyrrolidin-1-yl)propoxy)phenyl)amino)-6-methylpyrimidin-2-ol]",> 10 µM
4,CCOc1ccc(Nc2nccc(NC)n2)cc1OCC1CCN(C)C1 (centres unmarked) [Compound 431],> 10 µM
5,"CNc1nc(C)cc(Nc2cc(OCCCN3CCCC3)c(OC)cn2)n1 [Compound 306, N^4-(5-methoxy-4-(3-(pyrrolidin-1-yl)propoxy)pyridin-2-yl)-N^2,6-dimethylpyrimidine-2,4-diamine]",> 10 µM

# Second part, the compound after the results:
row,IC50,SMILES
1,1 to 10 µM,"CNc1ccnc(Nc2cccc(OCC(F)CN3CCCC3)c2)n1 (centres unmarked) [Compound 276, N^2-(3-(2-fluoro-3-(pyrrolidin-1-yl)propoxy)phenyl)-N^4-methylpyrimidine-2,4-diamine]"
2,> 10 µM,CNc1ccnc(Nc2cccc3oc(CCN(C)C)nc23)n1 [Compound 295]
3,0.1 to 1 µM,"CNc1cc(Nc2cc(OCCCN3CCCC3)c(OC)cn2)cc(C)n1 [Compound 308, N^4-(5-methoxy-4-(3-(pyrrolidin-1-yl)propoxy)pyridin-2-yl)-N^2,6-dimethylpyridine-2,4-diamine]"
4,> 10 µM,CNc1ccnc(Nc2cccc(N3CC(N)CC3=O)c2)n1 (centres unmarked) [Compound 296]
5,< 0.1 µM,"CNc1cc(C)nc(Nc2ccc(OC)c(OCC3CN(C)C3)c2)n1 [Compound 442, N^2-(4-methoxy-3-((1-methylazetidin-3-yl)methoxy)phenyl)-N^4,6-dimethylpyrimidine-2,4-diamine]"
6,0.1 to 1 µM,CNc1ccnc(Nc2ccc(OC)c(OCCCN3CC[C@H](F)C3)c2)n1 [Compound 271]
